Values quoted from earlier work in patent publication EP0801943A2, “Cosmetic and dermatological photoprotective compositions containing a triazine derivative and alkyl and/or dialkylesters of alpha, omega-alkanedicarboxylic acid” (Beiersdorf Aktiengesellschaft, priority 1996, dated 1997).

Settings: maximum amount of the filter that known solvents (Bekannte Lösungsmittel) can dissolve; prior-art statement, no test described

Löslichkeit in Lipiden: ≤ 15 Gew.-%
Compound: CCCCC(CC)COC(=O)c1ccc(Nc2nc(Nc3ccc(C(=O)OCC(CC)CCCC)cc3)nc(Nc3ccc(C(=O)OCC(CC)CCCC)cc3)n2)cc1 (stereo not shown) [UVINUL® T 150, 4,4',4''-(1,3,5-Triazin-2,4,6-triyltriimino)-tris-benzoesäure-tris(2-ethylhexylester)]
